Here are results for one compound from patent US9956168B2, “Extended release drug-delivery contact lenses and methods of making” (Mercy Medical Research Institute, priority 2013, dated 2018).

The experiment deals with MKP-1. The experiment is described as follows: In vitro effective dose study (Western blots for MKP-1 on HeLa cells). It counts as cell-based. The note with it: HeLa cells incubated with varying concentration; extrapolated.

Molecules are shown by their SMILES.

As to `CC(=O)OCC(=O)[C@@]1(O)CC[C@H]2[C@@H]3CCC4=CC(=O)C=C[C@]4(C)[C@H]3[C@@H](O)C[C@@]21C` [Prednisolone-21-acetate], the “in vitro effective dose” value was 5-10 ppm.
